Tests used:
Assay in all cases: relative viability (nuclei count vs DMSO), 5 days (fraction); higher = more cells survive
[1] = compound: CN1C=C(C2=CC=CC=C21)/C=C\3/C4=C(C=CC=N4)NC3=O + Cc1nc(NC(=O)N2CCC[C@H]2C(N)=O)sc1-c1ccnc(C(C)(C)C(F)(F)F)c1 [Alpelisib] (partner 2 µM)
How it was run: (§1)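 Relative viability divides the nuclei count in treated wells by that in vehicle wells. Lung cancer cell lines were seeded in 1536-well plates, dosed by pin tool the next day, and fixed and stained after 5 days in one step with final 0.05% Triton X-100, 1% formaldehyde and 1 ug/ml Hoechst. Dosing was a single drug or a fixed anchor-drug dose plus five library-drug doses (not always all listed) in √10 steps, and values are medians of duplicate plates imaged at 4×.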

[2] = compound: CN1C=C(C2=CC=CC=C21)/C=C\3/C4=C(C=CC=N4)NC3=O + CC(=O)Nc1cccc(-n2c(=O)n(C3CC3)c(=O)c3c(Nc4ccc(I)cc4F)n(C)c(=O)c(C)c32)c1 [Trametinib] (partner 0.02 µM)
How it was run: as §1

Trametinib + Pictilisib = compound: CC(=O)Nc1cccc(-n2c(=O)n(C3CC3)c(=O)c3c(Nc4ccc(I)cc4F)n(C)c(=O)c(C)c32)c1 [Trametinib] + CS(=O)(=O)N1CCN(Cc2cc3nc(-c4cccc5[nH]ncc45)nc(N4CCOCC4)c3s2)CC1 [Pictilisib] (partner 1 µM)
How it was run: as §1

[3] = compound: CN1C=C(C2=CC=CC=C21)/C=C\3/C4=C(C=CC=N4)NC3=O + COc1cc2c(Oc3ccc(NC(=O)C4(C(=O)Nc5ccc(F)cc5)CC4)cc3F)ccnc2cc1OCCCN1CCOCC1 [Foretinib] (partner 0.25 µM)
How it was run: as §1

Cell Line | relative viability ([1]; first compound 0.02 µM) | relative viability ([1]; first compound 0.06325 µM) | relative viability ([1]; first compound 0.2 µM) | relative viability ([1]; first compound 0.6325 µM) | relative viability ([1]; first compound 2 µM) | relative viability ([2]; first compound 0.02 µM) | relative viability ([2]; first compound 0.06325 µM) | relative viability ([2]; first compound 0.2 µM) | relative viability ([2]; first compound 0.6325 µM) | relative viability ([2]; first compound 2 µM) | relative viability (Trametinib + Pictilisib; first compound 0.0025 µM) | relative viability (Trametinib + Pictilisib; first compound 0.007906 µM) | relative viability (Trametinib + Pictilisib; first compound 0.025 µM) | relative viability (Trametinib + Pictilisib; first compound 0.07906 µM) | relative viability (Trametinib + Pictilisib; first compound 0.25 µM) | relative viability ([3]; first compound 0.02 µM) | relative viability ([3]; first compound 0.06325 µM) | relative viability ([3]; first compound 0.2 µM) | relative viability ([3]; first compound 0.6325 µM) | relative viability ([3]; first compound 2 µM)
NCI-H1651 | 0.916 | 0.947 | 1.06 | 0.998 | 0.921 | 0.818 | 0.833 | 0.861 | 0.837 | 0.868 | 0.5 | 0.488 | 0.406 | 0.49 | 0.389 | 0.809 | 0.803 | 0.894 | 0.891 | 0.812
NCI-H1666 | 0.94 | 0.814 | 0.805 | 0.915 | 0.616 | 0.987 | 0.832 | 0.901 | 0.857 | 0.925 | 0.267 | 0.371 | 0.276 | 0.255 | 0.244 | 0.972 | 0.991 | 0.938 | 0.879 | 1.02
NCI-H1734 | 0.706 | 0.663 | – | 0.675 | 0.662 | 0.603 | 0.619 | – | 0.676 | 0.699 | 0.439 | 0.448 | – | 0.362 | 0.299 | 0.928 | 0.875 | – | 0.904 | 1.03
NCI-H1755 | 0.872 | 0.922 | 0.944 | 0.836 | 0.858 | 0.782 | 0.83 | 0.76 | 0.737 | 0.696 | 0.396 | 0.348 | 0.248 | 0.331 | 0.228 | 0.813 | 0.83 | 0.899 | 0.838 | 0.833
NCI-H1793 | 0.979 | 1.02 | 0.654 | 0.668 | 0.675 | 0.526 | 0.611 | 0.396 | 0.441 | 0.387 | 0.4 | 0.314 | 0.169 | 0.307 | 0.232 | 0.877 | 0.815 | 0.682 | 0.601 | 0.659
NCI-H1915 | 1.03 | 1.1 | 1.08 | 1.18 | 1.04 | 0.3 | 0.32 | 0.293 | 0.303 | 0.285 | 0.963 | 0.466 | 0.317 | 0.287 | 0.24 | 1.09 | 1.15 | 1.14 | 1.18 | 1.18
NCI-H1944 | 0.721 | 0.789 | – | 0.833 | 0.748 | 0.359 | 0.359 | – | 0.405 | 0.444 | 0.333 | 0.307 | 0.253 | 0.278 | 0.262 | 0.89 | 0.874 | – | 0.826 | 0.77
NCI-H1975 | 0.603 | 0.718 | 0.536 | 0.625 | 0.498 | 0.32 | 0.237 | 0.323 | 0.326 | 0.271 | 0.252 | 0.199 | 0.137 | 0.162 | 0.179 | 0.87 | 0.918 | 0.83 | 0.697 | 0.837
